Results published in patent US5637582A, “Peripheral circulation improving agent” (priority 1992, dated 1997).

Columns and labels:
[1] = test system: vertebral artery; assay: Change of vertebral arterial blood flow in anesthetized dogs (Experimental Example 4); conditions: 100 μg/kg i.v.
Procedure: Each test compound was intravenously administered to adult dogs (one group consisting of 2 or 4 dogs) under anesthesia and artificial respiration at a dose of 100 μg/kg body weight. Femoral arterial blood flow, vertebral arterial blood flow and arterial blood pressure were measured 1, 3, 5, 10, 20 and 30 minutes after the administration. The femoral arterial blood flow and vertebral arterial blood flow were measured with an electromagnetic blood flowmeter (manufactured by Nihon Koden, MFV-2100, trade name) through a flow probe attached to the femoral artery or vertebral artery. The arterial blood pressure was measured with a pressure transducer (manufactured by Millar, MICRO-TIP, Model SPC-350) through a catheter attached to the brachial artery.
Changes of the femoral arterial blood flow, vertebral arterial blood flow and arterial blood pressure were estimated by comparing the values measured before and after the administration of the test compound.

[2] = test system: femoral artery; assay: Femoral arterial blood flow, hind leg cooling model of Raynaud's disease (Experimental Example 5); type: in vivo, male SD rat
Procedure: (Lower limbs peripheral circulation disorder model due to hind leg cooling: Model of Raynaud's disease)
A catheter was inserted into left common carotid artery of a male SD rat (one group consisting of 5 rats) under anesthesia, and the arterial blood pressure was measured with a standard pressure transducer (manufactured by Nihon Koden. TP-200T, trade name) through a catheter attached to the artery. After isolating the left femoral artery from the peripheral connective tissue, a flow probe (HDP 10-20R: F 1.0 mm) of a Doppler blood flow meter (manufactured by Crystal Biotec Co., PD20, trade name) was attached thereto and was connected to the Doppler blood flow meter to measure the artery blood flow. After the operation, at the time that the state became stable, the left hind leg was exposed to a perfused solution at 10° C. to decrease the femoral arterial blood flow. After 30 minutes, 1 ml/kg of a 0.9% NaCl solution or 300 μg/kg of the test compound A was intravenously administered and the state was observed. In the case of Beraprost Na, continuous injection in an amount of […] was carried out after 30 minutes from cooling. The compounds to be used were each dissolved in a 0.9% NaCl solution.
The present model is disclosed, for example, in Nishio et al, "Effect of Beraprost Sodium on Peripheral Circulatory Disturbances Induced by Various Stimuli", Arzneim.-Forsch./Drug Res., 39 (II), Nr. 10 (1989), pp. 1229-1234. Note particularly the section "2.4. Sphygmometry in rat hind paw", at page 1230.

CC(=O)O[C@@H]1C(=O)N(CCN(C)C)c2ccc(C)cc2S[C@@H]1c1ccc(C)cc1 [Compound A]
Vertebral Arterial Blood Flow change (side effects) ([1]; 1 min): 0.3 Δ ml/min
Vertebral Arterial Blood Flow change (side effects) ([1]; 3 min): 0.0 Δ ml/min
Vertebral Arterial Blood Flow change (side effects) ([1]; 5 min): -0.5 Δ ml/min
Vertebral Arterial Blood Flow change (side effects) ([1]; 10 min): -1.5 Δ ml/min
Vertebral Arterial Blood Flow change (side effects) ([1]; 20 min): -2.8 Δ ml/min
Vertebral Arterial Blood Flow change (side effects) ([1]; 30 min): -2.5 Δ ml/min
effect on vertebral arterial blood flow ([1]; G and H: one minute after, in words): substantially no effect
Femoral Arterial Blood Flow change ([2]; 0 min (before cooling and administration; 30 min = 0)): 1.364 Δ ml/min
Femoral Arterial Blood Flow change ([2]; 40 min, given at 30 min: A 300 μg/kg i.v., J 0.3 μg/kg/ml continuous injection): 0.072 Δ ml/min
Femoral Arterial Blood Flow change ([2]; 50 min, given at 30 min: A 300 μg/kg i.v., J 0.3 μg/kg/ml continuous injection): 0.276 Δ ml/min
Femoral Arterial Blood Flow change ([2]; 60 min, given at 30 min: A 300 μg/kg i.v., J 0.3 μg/kg/ml continuous injection): 0.416 Δ ml/min
Femoral Arterial Blood Flow change ([2]; 70 min, given at 30 min: A 300 μg/kg i.v., J 0.3 μg/kg/ml continuous injection): 0.452 Δ ml/min
Femoral Arterial Blood Flow change ([2]; 80 min, given at 30 min: A 300 μg/kg i.v., J 0.3 μg/kg/ml continuous injection): 0.452 Δ ml/min
Femoral Arterial Blood Flow change ([2]; 90 min, given at 30 min: A 300 μg/kg i.v., J 0.3 μg/kg/ml continuous injection): 0.496 Δ ml/min
